In paper PMC4838876, “Multivalent display of minimal Clostridium difficile glycan epitopes mimics antigenic properties of larger glycans” (Nature Communications, 2016):

System: mAb 2C5
Test: Interaction Map (IM) analysis based on SPR traces
Assay type: binding, mouse
From the text: Pentasaccharide 1 was bound with about 100-fold lower KD values than the minimal glycan epitope 3. This stronger binding may have been due to avidity (re-binding) effects, as 3 is contained twice in 1, or by higher affinity. To address this question, we compared the binding properties by IM analysis based on SPR traces. […] Both antigens interacted with mAb 2C5 in a 1:1-like manner, indicated by one dominant peak in the IM plots. Therefore, stronger antibody binding to 1 was due to increased affinity, not avidity, which would be characterized by differences in off-rates and additional peaks.
Figure 7 IM and thermodynamic analysis of glycan–mAb interactions and conformation of 1. (a) IM analysis. The heat maps represent on- and off-rates of mAb 2C5 to 1 (upper) and 3 (lower). (b) Thermograms acquired using 7 μM of mAb 2C5 and titrating 250 μM of 1 (left) or 3 mM of 3 (right) at 25 °C. Thermodynamic parameters were inferred by nonlinear least-square fits of the data points. (c) Summary of thermodynamic parameters for 1 and 3 interacting with mAbs 2C5 and 10A1. Bars represent mean±s.e.m. of two independent measurements. See Supplementary Fig. 6 for details. (d) One-dimensional proton NMR spectrum, and 2D zTOCSY and NOE spectroscopy (NOESY) NMR spectra of 1 showing the coupled protons to the anomeric protons of the five residues with numbering according to the structure shown in e. […]

Compound	on-rate
C[C@@H]1O[C@@H](O[C@@H]2[C@@H](O)[C@H](O[C@H]3[C@H](O[C@@H]4O[C@@H](C)[C@H](O)[C@@H](O)[C@H]4O)[C@@H](O)[C@@H](O[C@H]4[C@@H](OCCCCCN)O[C@H](CO)[C@@H](O)[C@@H]4O)O[C@@H]3CO)O[C@H](CO)[C@H]2O)[C@H](O)[C@H](O)[C@H]1O [Compound 1]	126,000 M^−1 s^−1
C[C@@H]1O[C@@H](O[C@@H]2[C@@H](O)[C@H](OCCCCCN)O[C@H](CO)[C@H]2O)[C@H](O)[C@H](O)[C@H]1O [Compound 3, Rha-(1→3)-Glc]	250 M⁻¹ s⁻¹
